Target: T1, TAK1-TAB1 fusion protein (Homo sapiens, UniProt O43318)
T1 construct: purchased Upstate 14-600
T1 sequence (O43318 with tags, fused parts or gaps limits assumed): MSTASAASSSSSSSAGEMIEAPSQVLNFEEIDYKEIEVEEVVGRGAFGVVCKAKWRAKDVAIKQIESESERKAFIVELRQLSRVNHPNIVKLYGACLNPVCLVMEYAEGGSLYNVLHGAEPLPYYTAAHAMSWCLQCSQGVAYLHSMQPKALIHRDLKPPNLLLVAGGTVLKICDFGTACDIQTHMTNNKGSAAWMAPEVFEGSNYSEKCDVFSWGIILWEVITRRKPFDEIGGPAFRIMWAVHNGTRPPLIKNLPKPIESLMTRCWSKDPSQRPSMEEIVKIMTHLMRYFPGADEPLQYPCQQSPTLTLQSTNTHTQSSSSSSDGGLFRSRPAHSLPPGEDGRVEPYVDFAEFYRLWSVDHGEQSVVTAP
Experiment: In vitro TAK1 kinase assay (33P-ATP, casein substrate)
Assay type: biochemical
Conditions: semi-quantitative score, at least two independent experiments
Method: For assessing TAK1 inhibition, active TAK1-TAB1 fusion protein was used from Upstate (Cat. No, 14-600). Kinase reactions are set up in 96-well polypropylene plates in 25 μL containing 0.5 mU TAK1-TAB1 fusion protein, […], 0.01 μCi/μL [^33P]-γ-ATP, 0.1 mg/mL casein substrate in 1× reaction buffer containing 10 mM MOPS pH 7.0, 1 mM EDTA.
Starting from the compound master stocks (all at 10 mM concentration in 100% DMSO) a 3-fold serial dilution is made in 96-well plates in 100% DMSO. Plates are further diluted […] in H2O containing 3.5% DMSO, to obtain an intermediate work stock with compounds at 5× the final assay concentration in 5% DMSO.
5 μL of the intermediate stock is transferred into V-bottom 96 well polypropylene plates and 11 μL of Enzyme mix is added. Enzyme mix is made by combining 5 μL 5× reaction buffer ([…] pH 7.0, 1 mM EDTA), 5 μL casein (Sigma) diluted in H2O to 0.5 mg/mL and 1 μL of TAK1-TAB1 fusion protein that was prediluted to 0.5 mU/μL in 1× enzyme dilution buffer (20 mM MOPS pH 7.0, 0.1 mM EDTA, 0.01% Brij-35, 5% glycerol, 1 mM DTT, 1 mg/ml BSA).
The reactions are started by the addition of 9 μL of mixture containing ATP (20.83 uM) and [^33P]-γ-ATP (0.028 μCi/μL).
The assay is stopped 90 minutes after incubation at 30° C. by the addition of 25 μL phosphoric acid (150 mM). The label incorporated into the casein substrate is separated from labeled unincorporated ATP by filtration onto 96-well filter plates using a harvester device. After 6 washes with 75 mM phosphoric acid, the bottom of the filter plates are sealed, and incorporated label is quantified after addition of 40 μL scintillation fluid using TopCount.
Based on these percent inhibition data obtained in at least two independent experiments for the compounds, compounds are ranked using semi-quantitative scores. Table A below lists a number of compounds which have been or can be prepared according to the synthetic methods described herein. Semi-quantitative score: • *>3001 nM • ** 1001-3000 nM • *** 101-1000 nM • ****<100 nM

Row | IC50 [nM] | SMILES
1 | 1000 to 3000 | O=C1NCc2cc(-c3ccc(Nc4ccc(-n5cccn5)cc4)c4nccn34)ccc21 [Compound 30, 5-(8-(4-(1H-pyrazol-1-yl)phenylamino)imidazo[1,2-a]pyridin-5-yl)isoindolin-1-one]
2 | 101 to 1000 | O=C1NCc2cc(-c3ccc(Nc4ccc(-n5cncn5)cc4)c4nccn34)ccc21 [Compound 31, 5-(8-(4-(1H-1,2,4-triazol-1-yl)phenylamino)imidazo[1,2-a]pyridin-5-yl)isoindolin-1-one]
3 | 101 to 1000 | O=C(NCc1cccc(-n2cccc2)c1)c1ccc(Nc2ccc(-c3ccc4c(c3)CNC4=O)n3ccnc23)cc1 [Compound 35, 4-[5-(1-Oxo-2,3-dihydro-1H-isoindol-5-yl)-imidazo[1,2-a]pyridin-8-ylamino]-N-(3-pyrrol-1-yl-benzyl)-benzamide]
4 | 101 to 1000 | CC1CCCN(C2CCN(C(=O)c3ccc(Nc4ccc(-c5ccc6c(c5)CNC6=O)n5ccnc45)cc3)CC2)C1 (stereo not shown) [Compound 54, 5-{8-[4-(3-Methyl-[1,4′]bipiperidinyl-1′-carbonyl)-phenylamino]-imidazo [1,2-a]pyridin-5-yl}-2,3-dihydro-isoindol-1-one]
5 | 101 to 1000 | CC1CCN(C2CCN(C(=O)c3ccc(Nc4ccc(-c5ccc6c(c5)CNC6=O)n5ccnc45)cc3)CC2)CC1 [Compound 55, 5-{8-[4-(4-Methyl-[1,4′]bipiperidinyl-1′-carbonyl)-phenylamino]-imidazo [1,2-a]pyridin-5-yl}-2,3-dihydro-isoindol-1-one]
6 | 101 to 1000 | O=C(NCCN1CCCCC1)c1ccc(Nc2ccc(-c3ccc4c(c3)CNC4=O)n3ccnc23)cc1 [Compound 56, 4-(5-(1-oxoisoindolin-5-yl)imidazo[1,2-a]pyridin-8-ylamino)-N-(2-(piperidin-1-yl)ethyl)benzamide]
7 | 101 to 1000 | CC(=O)NCCNC(=O)c1ccc(Nc2ccc(-c3ccc4c(c3)CNC4=O)n3ccnc23)cc1 [Compound 57, N-(2-acetamidoethyl)-4-(5-(1-oxoisoindolin-5-yl)imidazo[1,2-a]pyridin-8-ylamino)benzamide]
8 | 101 to 1000 | COCCNC(=O)c1ccc(Nc2ccc(-c3ccc4c(c3)CNC4=O)n3ccnc23)cc1 [Compound 58, N-(2-methoxyethyl)-4-(5-(1-oxoisoindolin-5-yl)imidazo[1,2-a]pyridin-8-ylamino)benzamide]
9 | 1000 to 3000 | CC(C)N1CCN(c2ccc(Nc3ccc(-c4ccc(O)c(F)c4)n4ccnc34)cc2)CC1 [Compound 93]
10 | 101 to 1000 | C[C@@H]1CN(C)[C@@H](C)CN1c1ccc(Nc2ccc(-c3cc[nH]c(=O)c3)n3ccnc23)cc1F [Compound 97]
11 | 101 to 1000 | C[C@@H]1CN(c2ccc(Nc3ccc(-c4cc[nH]c(=O)c4)n4ccnc34)cc2)C[C@H](C)N1C [Compound 98]
12 | 101 to 1000 | C[C@@H]1CN(C)[C@@H](C)CN1c1ccc(Nc2ccc(-c3cc[nH]c(=O)c3)n3ccnc23)cc1 [Compound 99]
13 | 101 to 1000 | O=c1cc(-c2ccc(Nc3ccc(C4CCNCC4)cc3)c3nccn23)cc[nH]1 [Compound 100]
14 | 101 to 1000 | C[C@@H]1CN(c2ccc(Nc3ccc(-c4cc[nH]c(=O)c4)n4ccnc34)cc2F)C[C@H](C)N1C [Compound 101]
15 | < 100 | O=C(c1ccc(Nc2ccc(-c3cc[nH]c(=O)c3)n3ccnc23)cc1)N1CCC(N2CCCCC2)CC1 [Compound 102]
16 | 101 to 1000 | CC(C)N1CCN(c2ccc(Nc3ccc(-c4cc[nH]c(=O)c4)n4ccnc34)cc2F)CC1 [Compound 103]

Row | IC50 [nM] | SMILES
17 | 101 to 1000 | CCN1CCN(c2ccc(Nc3ccc(-c4cc[nH]c(=O)c4)n4ccnc34)cc2Cl)CC1 [Compound 104]
18 | 101 to 1000 | CC(C)N1CCN(c2ccc(Nc3ccc(-c4cc[nH]c(=O)c4)n4ccnc34)cc2Cl)CC1 [Compound 105]
19 | > 3000 | O=c1cc(-c2ccc(Nc3ccc(N4CCN(CC(F)F)CC4)cc3)c3nccn23)cc[nH]1 [Compound 110, 4-(8-{4-[4-(2,2-Difluoro-ethyl)-piperazin-1-yl]-phenylamino}-imidazo[1,2-a]pyridin-5-yl)-1H-pyridin-2-one]
20 | > 3000 | O=c1cc(-c2ccc(Nc3ccc(N4CCS(=O)(=O)CC4)cc3)c3nccn23)cc[nH]1 [Compound 112, 4-{8-[4-(1,1-Dioxo-1lambda*6*- thiomorpholin-4-yl)-phenylamino]-imidazo[1,2-a]pyridin-5-yl}-1H-pyridin-2-one]
21 | 1000 to 3000 | C[C@@H]1CN(c2ccc(Nc3ccc(-c4cc[nH]c(=O)c4)n4ccnc34)cc2)C[C@H](C)O1 [Compound 113, 4-{8-[4-((2R,6S)-2,6-Dimethyl-morpholin-4-yl)-phenylamino)-imidazo[1,2-a]pyridin-5-yl}-1H-pyridin-2-one]
22 | 101 to 1000 | O=c1cc(-c2ccc(Nc3ccc(N4CCN5CCCCC5C4)cc3)c3nccn23)cc[nH]1 (stereo not shown) [Compound 114, 4-{8′-[4-(Octahydro-pyrido[1,2-a]pyrazin-2-yl)-phenylamino]-imidazo[1,2-a]pyridin-5-yl}-1H-pyridin-2-one]
23 | 1000 to 3000 | O=c1cc(-c2ccc(Nc3ccc(N4CCCCC4)cc3)c3nccn23)cc[nH]1 [Compound 115, 4-[8-(4-Piperidin-1-yl-phenylamino)-imidazo[1,2-a]pyridin-5-yl]-1H-pyridin-2-one]
24 | 1000 to 3000 | O=c1cc(-c2ccc(Nc3ccc(N4CCC(F)CC4)cc3)c3nccn23)cc[nH]1 [Compound 116, 4-{8-[4-(4-Fluoro-piperidin-1-yl)-phenylamino]-imidazo[1,2-a]pyridin-5-yl}-1H-pyridin-2-one]
25 | > 3000 | O=c1cc(-c2ccc(Nc3ccc(N4CCC(F)(F)CC4)cc3)c3nccn23)cc[nH]1 [Compound 117, 4-{8-[4-(4,4-Difluoro-piperidin-1-yl)-phenylamino]-imidazo[1,2-a]pyridin-5-yl}-1H-pyridin-2-one]
26 | > 3000 | O=c1cc(-c2ccc(Nc3ccc(N4CCCC(F)(F)C4)cc3)c3nccn23)cc[nH]1 [Compound 118, 4-{8-[4-(3,3-Difluoro-piperidin-1-yl)-phenylamino]-imidazo[1,2a]pyridin-5-yl}-1H-pyridin-2-one]
27 | 101 to 1000 | c1cn2c(-c3cn[nH]c3)ccc(Nc3ccc(N4CCC(N5CCCCC5)CC4)cc3)c2n1 [Compound 119, (4[1,4′]Bipiperidinyl-1′-yl-phenyl)-[5-(1H-pyrazol-4-yl)-imidazo[1,2-a]pyridin-8-yl]-amine]
28 | 101 to 1000 | CC1CCN(C2CCN(c3ccc(Nc4ccc(-c5cc[nH]c(=O)c5)n5ccnc45)cc3)CC2)CC1 [Compound 121, 4-{8-[4-(4-Methyl-[1,4′]bipiperidinyl-1′-yl)-phenylamino]-imidazo[1,2-a]pyridin-5-yl}-1H-pyridin-2-one]
29 | 101 to 1000 | CC1CCCN(C2CCN(c3ccc(Nc4ccc(-c5cc[nH]c(=O)c5)n5ccnc45)cc3)CC2)C1 (stereo not shown) [Compound 122, 4-{8-[4-(3-Methyl-[1,4′]bipiperidinyl-1′-yl)-phenylamino]-imidazo[1,2-a]pyridin-5-yl}-1H-pyridin-2-one]
30 | 1000 to 3000 | O=c1cc(-c2ccc(Nc3ccc(N4CCC(N5CCC(O)CC5)CC4)cc3)c3nccn23)cc[nH]1 [Compound 123, 4-{8-[4-(4-Hydroxy-[1,4′]bipiperidinyl-1′-yl)-phenylamino]-imidazo[1,2-a]pyridin-5-yl}-1H-pyridin-2-one]
31 | > 3000 | O=c1cc(-c2ccc(Nc3ccc(N4CCCC4)c(Cl)c3)c3nccn23)cc[nH]1 [Compound 125, 4-[8-(3-Chloro-4-pyrrolidin-1-yl-phenylamino)-imidazo[1,2-a]pyridin-5-yl]-1H-pyridin-2-one]
